Measured values from patent US20260327191A1, “GSK3a INHIBITORS AND METHODS OF USE THEREOF” (Blueprint Medicines Corporation, priority 2023, published 2026).

Legend:
human GSK3α = molecular target: T1, human GSK3α (Homo sapiens, UniProt P49840); test: In vitro enzymatic activity assay, GSK3α; assay type: biochemical; conditions: 1.0 mM ATP, 1.0 μM peptide substrate, 120 min, 25° C, read-out: Enzyme GSK3α (IC50)
T1 construct: Full length human GSK3α or GSK3B expressed as N-terminal GST fusion proteins; GST (N); purchased Carna Biosciences (Japan); host or cells: baculovirus host
Experimental: (§1) Full length human GSK3α or GSK3B expressed as N-terminal GST fusion proteins in baculovirus host were purchased from Carna Biosciences (Japan). The kinase was pre-incubated with ATP (adenosine-5′-triphosphate) for 45 min, then incubated with tested compounds for another 45 min in assay buffer that contains 100 mM HEPES (N-2-hydroxyethylpiperazine-N′-2-ethanesulfonic acid), pH 7.5, 10 mM MgCl2, 1.0 mM DTT, and 0.015% Briji-35. […] Percent inhibition was plotted against compound concentration to generate 10-point dose response curve with 3-fold serial dilution starting from 10 μM. IC50 value was determined from the 4-parameter logistic curve fitting.

GSK3A = molecular target: T2, GSK3A (Homo sapiens, UniProt P49840); test: NanoBRET cellular target engagement assay, Nanoluc-GSK3A in HEK293 cells; assay type: cell-based; conditions: NanoBRET GSK3α IC50, HEK293 cells, tracer K-8, 2 hours, 37° C
T2 construct: expressed in transfected cells
Experimental: (§2) In the assay, HEK293 cells stably expressing either Nanoluc-GSK3A or Nanoluc-GSK3B were maintained in culture media and seeded, using a multidrop dispenser, at a density of 5×10^3 cells per well in 384-well white plates with 100 ng/ml doxycycline (Sigma) overnight.
(§3) Compound was first diluted in DMSO to generate a 9-point serial dilution then diluted to 10× final concentration in Opti-MEM™ (Gibco). After overnight incubation, cell medium was aspirated from the seeded cells using a microplate automatic washer, then 27 μL of pre-warmed Opti-MEM™ with kinase tracer (K-8) and 3 μL of Opti-MEM™ diluted DMSO or compounds were added per well. Plates were protected from light, mixed in an orbital shaker for 3 min at RT and incubated at 37° C., 5% CO2 in a humidified incubator for 2 hours. After acclimation at RT for 15 min, 15 μL of 3× complete NanoBRET™ Nano-Glo Substrate/Inhibitor (Promega) was added per well. Plates were mixed in an orbital shaker for 3 min at RT and incubated for an additional 30 min. Donor emission at 460 nm and acceptor emission at 647 nm were measured in EnVision multilabel plate reader (Perkin Elmer).

GSK3B [1] = molecular target: T3, GSK3B (Homo sapiens, UniProt P49841); test: NanoBRET cellular target engagement assay, Nanoluc-GSK3B in HEK293 cells; assay type: cell-based; parameters: expressed in transfected cells; conditions: NanoBRET GSK3β IC50, HEK293 cells, tracer K-8, 2 hours, 37° C
Experimental: as §2, §3

GSK3B [2] = molecular target: T3, GSK3B; test: In vitro enzymatic activity assay, GSK3β; assay type: biochemical; parameters: Full length human GSK3α or GSK3B expressed as N-terminal GST fusion proteins; GST (N); purchased Carna Biosciences (Japan); host or cells: baculovirus host; conditions: 1.0 mM ATP, 1.0 μM peptide substrate, 120 min, 25° C, read-out: Enzyme GSK3β (IC50)
Experimental: as §1

T2 sequence (P49840 whole entry): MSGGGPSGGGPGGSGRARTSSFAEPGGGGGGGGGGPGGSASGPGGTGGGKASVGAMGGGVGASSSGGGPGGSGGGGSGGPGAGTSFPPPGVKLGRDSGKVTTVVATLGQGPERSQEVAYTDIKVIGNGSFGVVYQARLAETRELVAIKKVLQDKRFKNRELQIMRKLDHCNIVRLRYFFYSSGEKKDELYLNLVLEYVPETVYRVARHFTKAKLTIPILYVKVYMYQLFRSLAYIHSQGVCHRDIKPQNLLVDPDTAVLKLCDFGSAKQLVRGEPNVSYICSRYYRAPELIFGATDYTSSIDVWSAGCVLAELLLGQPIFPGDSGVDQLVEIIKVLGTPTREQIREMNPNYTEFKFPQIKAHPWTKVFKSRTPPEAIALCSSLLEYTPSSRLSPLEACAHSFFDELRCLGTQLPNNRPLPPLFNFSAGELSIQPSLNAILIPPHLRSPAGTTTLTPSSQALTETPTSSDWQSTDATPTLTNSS
T1 sequence (P49840 whole entry, the tested form may be a part): as the sequence (P49840 whole entry) above
T3 sequence (P49841 whole entry): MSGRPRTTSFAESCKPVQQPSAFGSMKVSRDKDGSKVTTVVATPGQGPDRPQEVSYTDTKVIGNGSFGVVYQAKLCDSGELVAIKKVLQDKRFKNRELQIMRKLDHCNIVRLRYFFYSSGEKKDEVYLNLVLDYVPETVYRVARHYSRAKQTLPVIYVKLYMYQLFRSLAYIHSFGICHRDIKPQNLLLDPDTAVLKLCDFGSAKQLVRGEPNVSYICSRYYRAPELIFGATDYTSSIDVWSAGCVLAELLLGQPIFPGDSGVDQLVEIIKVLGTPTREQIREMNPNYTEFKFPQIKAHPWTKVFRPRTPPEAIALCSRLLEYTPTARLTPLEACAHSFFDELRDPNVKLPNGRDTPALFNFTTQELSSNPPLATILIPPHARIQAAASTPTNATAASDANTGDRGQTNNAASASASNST

Row | Structure (SMILES) | IC50 (human GSK3α) [nM] | IC50 (GSK3A) [nM] | IC50 (GSK3B [1]) [nM] | IC50 (GSK3B [2]) [nM]
1 | COc1cc(Cl)c(-n2cnc(N)c(C(=O)Nc3cncc([C@@H]4NC[C@H]5CCC[C@H]54)c3)c2=O)c(Cl)c1 (single isomer, unassigned) [Example 32, 4-amino-1-(2,6-dichloro-4-methoxyphenyl)-N-(5-((1R,3aS,6aR)-octahydrocyclopenta[c]pyrrol-1-yl)pyridin-3-yl)-6-oxo-1,6-dihydropyrimidine-5-carboxamide or 4-amino-1-(2,6-dichloro-4-methoxyphenyl)-N-(5-((1S,3aR,6aS)-octahydrocyclopenta[c]pyrrol-1-yl)pyridin-3-yl)-6-oxo-1,6-dihydropyrimidine-5-carboxamide] | 6.3 | 2.6 | 158 | 269
2 | COC[C@H](N)c1cncc(NC(=O)c2c(N)ncn(-c3c(Cl)cc(OC(F)F)cc3Cl)c2=O)c1 (single isomer, unassigned) [Example 47, (R)-4-amino-N-(5-(1-amino-2-methoxyethyl)pyridin-3-yl)-1-(2,6-dichloro-4-(difluoromethoxy)phenyl)-6-oxo-1,6-dihydropyrimidine-5-carboxamide or (S)-4-amino-N-(5-(1-amino-2-methoxyethyl)pyridin-3-yl)-1-(2,6-dichloro-4-(difluoromethoxy)phenyl)-6-oxo-1,6-dihydropyrimidine-5-carboxamide] | 3.2 | 2.9 | 174 | 227
3 | CCCOc1cc(Cl)c(-n2cnc(N)c(C(=O)Nc3cncc(CNCC)c3)c2=O)c(Cl)c1 [Example 86, 4-amino-1-(2,6-dichloro-4-propoxyphenyl)-N-(5-((ethylamino)methyl)pyridin-3-yl)-6-oxo-1,6-dihydropyrimidine-5-carboxamide] | 6.6 | 4.2 | 321 | 414
4 | CNCCc1c(NC(=O)c2c(N)ncn(-c3c(C)cccc3Cl)c2=O)cccc1OC [Example 164, 4-amino-1-((S)-2-chloro-6-methylphenyl)-N-(3-methoxy-2-(2-(methylamino)ethyl)phenyl)-6-oxo-1,6-dihydropyrimidine-5-carboxamide] | 29.4 | 9.7 | 1170 | 1850
5 | CCOc1cc(Cl)c(-n2cnc(N)c(C(=O)Nc3cncc(C(COC)NC)c3)c2=O)c(Cl)c1 (single isomer, unassigned) [Example 141, (R)-4-amino-1-(2,6-dichloro-4-ethoxyphenyl)-N-(5-(2-methoxy-1-(methylamino)ethyl)pyridin-3-yl)-6-oxo-1,6-dihydropyrimidine-5-carboxamide or (S)-4-amino-1-(2,6-dichloro-4-ethoxyphenyl)-N-(5-(2-methoxy-1-(methylamino)ethyl)pyridin-3-yl)-6-oxo-1,6-dihydropyrimidine-5-carboxamide] | 4.1 | 2.9 | 318 | 232
6 | COCc1cc(C)c(-n2cnc(N)c(C(=O)Nc3cncc([C@H]4CC[C@H](C)N4)c3)c2=O)c(C)c1 (single isomer, unassigned) [Example 103] | 13.2 | 6.6 | 532 | 581
7 | Cc1cc(CCF)cc(C)c1-n1cnc(N)c(C(=O)Nc2cncc(C(C)N)c2)c1=O (single isomer, unassigned) [Example 155, (R)-4-amino-N-(5-(1-aminoethyl)pyridin-3-yl)-1-(4-(2-fluoroethyl)-2,6-dimethylphenyl)-6-oxo-1,6-dihydropyrimidine-5-carboxamide or (S)-4-amino-N-(5-(1-aminoethyl)pyridin-3-yl)-1-(4-(2-fluoroethyl)-2,6-dimethylphenyl)-6-oxo-1,6-dihydropyrimidine-5-carboxamide] | 9.9 | 3.7 | 279 | 374
8 | CCOc1cc(C)c(-n2cnc(N)c(C(=O)Nc3cncc(C(C)N)c3)c2=O)c(C)c1 (single isomer, unassigned) [Example 104, (R)-4-amino-N-(5-(1-aminoethyl)pyridin-3-yl)-1-(4-ethoxy-2,6-dimethylphenyl)-6-oxo-1,6-dihydropyrimidine-5-carboxamide or (S)-4-amino-N-(5-(1-aminoethyl)pyridin-3-yl)-1-(4-ethoxy-2,6-dimethylphenyl)-6-oxo-1,6-dihydropyrimidine-5-carboxamide] | 16.2 | 7.9 | 521 | 746
9 | [2H]C([2H])([2H])NC(C)c1cncc(NC(=O)c2c(N)ncn(-c3c(C)cc(OC)cc3Cl)c2=O)c1 (single isomer, unassigned) [Example 4, (R)-4-amino-1-((S)-2-chloro-4-methoxy-6-methylphenyl)-N-(5-(1-((methyl-d3)amino)ethyl)pyridin-3-yl)-6-oxo-1,6-dihydropyrimidine-5-carboxamide or (S)-4-amino-1-((S)-2-chloro-4-methoxy-6-methylphenyl)-N-(5-(1-((methyl-d3)amino)ethyl)pyridin-3-yl)-6-oxo-1,6-dihydropyrimidine-5-carboxamide] | 3.7 | 1.4 | 109 | 187
10 | Nc1ncn(-c2c(Cl)cccc2Cl)c(=O)c1C(=O)Nc1cncc([C@H]2CCOCCN2)c1 (single isomer, unassigned) [Example 215, (R)—N-(5-(1,4-oxazepan-5-yl)pyridin-3-yl)-4-amino-1-(2,6-dichlorophenyl)-6-oxo-1,6-dihydropyrimidine-5-carboxamide or (S)—N-(5-(1,4-oxazepan-5-yl)pyridin-3-yl)-4-amino-1-(2,6-dichlorophenyl)-6-oxo-1,6-dihydropyrimidine-5-carboxamide] | 7.2 | 8.5 | 690 | 500
11 | Cc1cccc(Cl)c1-n1cnc(N)c(C(=O)Nc2cccc([C@@H]3CCCN3)c2F)c1=O (single isomer, unassigned) [Example 217, (S)-4-amino-1-((S)-2-chloro-6-methylphenyl)-N-(2-fluoro-3-(pyrrolidin-2-yl)phenyl)-6-oxo-1,6-dihydropyrimidine-5-carboxamide or (R)-4-amino-1-((S)-2-chloro-6-methylphenyl)-N-(2-fluoro-3-(pyrrolidin-2-yl)phenyl)-6-oxo-1,6-dihydropyrimidine-5-carboxamide] | 7.8 | 8 | 424 | 305
12 | COc1cc(Cl)c(-n2cnc(N)c(C(=O)Nc3cnnc(C4CCCCN4)c3)c2=O)c(Cl)c1 (single isomer, unassigned) [Example 172, (R)-4-amino-1-(2,6-dichloro-4-methoxyphenyl)-6-oxo-N-(6-(piperidin-2-yl)pyridazin-4-yl)-1,6-dihydropyrimidine-5-carboxamide or (S)-4-amino-1-(2,6-dichloro-4-methoxyphenyl)-6-oxo-N-(6-(piperidin-2-yl)pyridazin-4-yl)-1,6-dihydropyrimidine-5-carboxamide] | 6.3 | 3.5 | 98.8 | 260
